Measured values from article PMC7206119, “RIP1 inhibition blocks inflammatory diseases but not tumor growth or metastases” (Cell Death and Differentiation, 2019).

What was measured:
Assay in all cases: biochemical
Set-up in all cases: DiscoverX kinase panel, active-site competition binding (KINOMEscan type), percent of control at one concentration
Conditions in all cases: competition binding, percent of control
[1] = target: ULK1 (Homo sapiens, UniProt O75385)
[2] = target: CAMKK2 (Homo sapiens, UniProt Q96RR4)
[3] = target: RIOK2 (Homo sapiens, UniProt Q9BVS4)
[4] = target: LATS2 (Homo sapiens, UniProt Q9NRM7)
[5] = target: CSNK1G2 (Homo sapiens, UniProt P78368)
[6] = target: ERN1 (Homo sapiens, UniProt O75460)
[7] = target: T1, CAMK1B (Homo sapiens, UniProt Q6P2M8)
T1 construct: gene PNCK

[8] = target: T2, ERK4 (Homo sapiens, UniProt P31152)
T2 construct: gene MAPK4

[9] = target: EPHA3 (Homo sapiens, UniProt P29320)
[10] = target: NEK3 (Homo sapiens, UniProt P51956)
[11] = target: T3, ABL1(T315I)-phosphorylated (Homo sapiens, UniProt P00519, T315I)
T3 construct: phosphorylated

[12] = target: MAPKAPK2 (Homo sapiens, UniProt P49137)
[13] = target: T4, RSK3(Kin.Dom.2-C-terminal) (Homo sapiens, UniProt Q15349)
T4 construct: gene RPS6KA2; Kin.Dom.2-C-terminal

[14] = target: INSRR (Homo sapiens, UniProt P14616)
[15] = target: HCK (Homo sapiens, UniProt P08631)
[16] = target: T5, RIPK5 (Homo sapiens, UniProt Q6XUX3)
T5 construct: gene DSTYK

[17] = target: ALK(C1156Y) (Homo sapiens, UniProt Q9UM73, C1156Y)
[18] = target: FLT3(D835V) (Homo sapiens, UniProt P36888, D835V)
[19] = target: STK35 (Homo sapiens, UniProt Q8TDR2)
[20] = target: PAK2 (Homo sapiens, UniProt Q13177)
[21] = target: T6, CTK (Homo sapiens, UniProt P42679)
T6 construct: gene MATK

T5 sequence (Q6XUX3 whole entry): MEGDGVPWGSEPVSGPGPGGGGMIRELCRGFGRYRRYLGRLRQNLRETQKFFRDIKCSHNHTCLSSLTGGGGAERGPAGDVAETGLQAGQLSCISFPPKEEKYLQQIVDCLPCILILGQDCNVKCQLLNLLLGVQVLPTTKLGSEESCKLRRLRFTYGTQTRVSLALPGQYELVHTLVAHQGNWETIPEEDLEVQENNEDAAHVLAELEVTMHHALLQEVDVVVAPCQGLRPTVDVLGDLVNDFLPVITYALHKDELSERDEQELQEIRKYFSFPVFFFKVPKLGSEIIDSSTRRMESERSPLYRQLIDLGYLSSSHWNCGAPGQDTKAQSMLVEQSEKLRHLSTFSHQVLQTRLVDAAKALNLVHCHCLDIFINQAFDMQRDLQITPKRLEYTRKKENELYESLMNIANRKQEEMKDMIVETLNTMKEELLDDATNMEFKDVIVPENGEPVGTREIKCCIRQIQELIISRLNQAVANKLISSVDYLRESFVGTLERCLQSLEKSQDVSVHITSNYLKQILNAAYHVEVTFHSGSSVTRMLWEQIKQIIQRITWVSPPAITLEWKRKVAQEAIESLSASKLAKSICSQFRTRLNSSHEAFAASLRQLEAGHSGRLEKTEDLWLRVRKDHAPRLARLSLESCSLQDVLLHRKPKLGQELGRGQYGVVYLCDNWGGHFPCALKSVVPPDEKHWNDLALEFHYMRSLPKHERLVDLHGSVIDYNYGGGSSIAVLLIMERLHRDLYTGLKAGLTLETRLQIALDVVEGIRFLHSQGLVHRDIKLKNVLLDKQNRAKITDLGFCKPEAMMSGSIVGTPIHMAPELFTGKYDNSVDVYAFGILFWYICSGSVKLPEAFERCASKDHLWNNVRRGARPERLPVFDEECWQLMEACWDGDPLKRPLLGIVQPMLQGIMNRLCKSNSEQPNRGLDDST
Chain of ULK1 (O75385 whole entry): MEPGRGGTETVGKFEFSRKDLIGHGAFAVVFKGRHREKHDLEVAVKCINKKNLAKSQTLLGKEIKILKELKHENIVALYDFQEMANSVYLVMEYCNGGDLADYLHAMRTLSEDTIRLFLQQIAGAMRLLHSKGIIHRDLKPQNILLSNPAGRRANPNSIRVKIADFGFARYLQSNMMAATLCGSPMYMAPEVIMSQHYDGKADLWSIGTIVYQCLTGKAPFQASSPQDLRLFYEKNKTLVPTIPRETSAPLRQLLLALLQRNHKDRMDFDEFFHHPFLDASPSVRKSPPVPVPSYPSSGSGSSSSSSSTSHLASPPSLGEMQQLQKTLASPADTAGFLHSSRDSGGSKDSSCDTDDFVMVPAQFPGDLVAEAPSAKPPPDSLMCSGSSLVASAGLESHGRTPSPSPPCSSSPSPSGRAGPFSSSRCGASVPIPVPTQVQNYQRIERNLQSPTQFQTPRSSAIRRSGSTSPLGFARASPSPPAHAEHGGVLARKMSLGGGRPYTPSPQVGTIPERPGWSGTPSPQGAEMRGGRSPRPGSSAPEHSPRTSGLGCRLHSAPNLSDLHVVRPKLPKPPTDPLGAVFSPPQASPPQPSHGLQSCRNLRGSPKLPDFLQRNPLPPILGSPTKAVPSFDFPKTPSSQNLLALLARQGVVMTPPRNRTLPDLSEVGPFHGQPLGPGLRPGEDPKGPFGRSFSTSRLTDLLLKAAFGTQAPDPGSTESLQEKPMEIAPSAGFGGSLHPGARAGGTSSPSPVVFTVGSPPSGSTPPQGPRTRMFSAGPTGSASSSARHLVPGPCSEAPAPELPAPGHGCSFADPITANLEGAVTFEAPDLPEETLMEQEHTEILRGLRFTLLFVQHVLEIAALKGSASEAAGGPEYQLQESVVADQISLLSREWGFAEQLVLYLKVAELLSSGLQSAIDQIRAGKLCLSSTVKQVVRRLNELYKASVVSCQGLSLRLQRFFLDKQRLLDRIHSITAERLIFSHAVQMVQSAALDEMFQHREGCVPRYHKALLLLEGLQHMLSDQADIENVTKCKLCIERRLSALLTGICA
Chain of EPHA3 (P29320 whole entry): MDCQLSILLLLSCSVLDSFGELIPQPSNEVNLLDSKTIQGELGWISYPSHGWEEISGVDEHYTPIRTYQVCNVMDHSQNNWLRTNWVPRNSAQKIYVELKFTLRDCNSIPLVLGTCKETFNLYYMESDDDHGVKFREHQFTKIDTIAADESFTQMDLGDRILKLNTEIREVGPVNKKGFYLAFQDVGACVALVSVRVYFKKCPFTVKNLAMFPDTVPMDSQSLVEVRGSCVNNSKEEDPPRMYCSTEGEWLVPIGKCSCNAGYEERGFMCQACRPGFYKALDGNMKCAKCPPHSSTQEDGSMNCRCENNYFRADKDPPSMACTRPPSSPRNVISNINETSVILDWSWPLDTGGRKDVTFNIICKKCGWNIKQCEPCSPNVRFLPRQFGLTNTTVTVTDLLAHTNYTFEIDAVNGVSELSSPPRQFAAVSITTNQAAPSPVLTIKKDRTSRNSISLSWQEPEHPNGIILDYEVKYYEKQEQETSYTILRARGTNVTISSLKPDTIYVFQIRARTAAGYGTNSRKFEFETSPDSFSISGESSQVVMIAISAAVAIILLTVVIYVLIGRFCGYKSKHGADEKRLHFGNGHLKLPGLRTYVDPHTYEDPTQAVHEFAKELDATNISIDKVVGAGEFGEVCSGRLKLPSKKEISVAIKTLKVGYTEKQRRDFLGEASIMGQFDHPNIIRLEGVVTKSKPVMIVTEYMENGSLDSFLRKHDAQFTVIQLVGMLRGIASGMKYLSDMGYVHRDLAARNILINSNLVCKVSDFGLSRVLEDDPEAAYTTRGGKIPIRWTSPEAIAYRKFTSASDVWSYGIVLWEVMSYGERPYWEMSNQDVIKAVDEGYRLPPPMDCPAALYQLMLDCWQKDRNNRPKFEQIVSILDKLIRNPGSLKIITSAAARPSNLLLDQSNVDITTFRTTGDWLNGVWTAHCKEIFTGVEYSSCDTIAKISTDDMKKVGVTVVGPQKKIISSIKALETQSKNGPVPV
Chain of ALK(C1156Y) (Q9UM73 whole entry C1156Y): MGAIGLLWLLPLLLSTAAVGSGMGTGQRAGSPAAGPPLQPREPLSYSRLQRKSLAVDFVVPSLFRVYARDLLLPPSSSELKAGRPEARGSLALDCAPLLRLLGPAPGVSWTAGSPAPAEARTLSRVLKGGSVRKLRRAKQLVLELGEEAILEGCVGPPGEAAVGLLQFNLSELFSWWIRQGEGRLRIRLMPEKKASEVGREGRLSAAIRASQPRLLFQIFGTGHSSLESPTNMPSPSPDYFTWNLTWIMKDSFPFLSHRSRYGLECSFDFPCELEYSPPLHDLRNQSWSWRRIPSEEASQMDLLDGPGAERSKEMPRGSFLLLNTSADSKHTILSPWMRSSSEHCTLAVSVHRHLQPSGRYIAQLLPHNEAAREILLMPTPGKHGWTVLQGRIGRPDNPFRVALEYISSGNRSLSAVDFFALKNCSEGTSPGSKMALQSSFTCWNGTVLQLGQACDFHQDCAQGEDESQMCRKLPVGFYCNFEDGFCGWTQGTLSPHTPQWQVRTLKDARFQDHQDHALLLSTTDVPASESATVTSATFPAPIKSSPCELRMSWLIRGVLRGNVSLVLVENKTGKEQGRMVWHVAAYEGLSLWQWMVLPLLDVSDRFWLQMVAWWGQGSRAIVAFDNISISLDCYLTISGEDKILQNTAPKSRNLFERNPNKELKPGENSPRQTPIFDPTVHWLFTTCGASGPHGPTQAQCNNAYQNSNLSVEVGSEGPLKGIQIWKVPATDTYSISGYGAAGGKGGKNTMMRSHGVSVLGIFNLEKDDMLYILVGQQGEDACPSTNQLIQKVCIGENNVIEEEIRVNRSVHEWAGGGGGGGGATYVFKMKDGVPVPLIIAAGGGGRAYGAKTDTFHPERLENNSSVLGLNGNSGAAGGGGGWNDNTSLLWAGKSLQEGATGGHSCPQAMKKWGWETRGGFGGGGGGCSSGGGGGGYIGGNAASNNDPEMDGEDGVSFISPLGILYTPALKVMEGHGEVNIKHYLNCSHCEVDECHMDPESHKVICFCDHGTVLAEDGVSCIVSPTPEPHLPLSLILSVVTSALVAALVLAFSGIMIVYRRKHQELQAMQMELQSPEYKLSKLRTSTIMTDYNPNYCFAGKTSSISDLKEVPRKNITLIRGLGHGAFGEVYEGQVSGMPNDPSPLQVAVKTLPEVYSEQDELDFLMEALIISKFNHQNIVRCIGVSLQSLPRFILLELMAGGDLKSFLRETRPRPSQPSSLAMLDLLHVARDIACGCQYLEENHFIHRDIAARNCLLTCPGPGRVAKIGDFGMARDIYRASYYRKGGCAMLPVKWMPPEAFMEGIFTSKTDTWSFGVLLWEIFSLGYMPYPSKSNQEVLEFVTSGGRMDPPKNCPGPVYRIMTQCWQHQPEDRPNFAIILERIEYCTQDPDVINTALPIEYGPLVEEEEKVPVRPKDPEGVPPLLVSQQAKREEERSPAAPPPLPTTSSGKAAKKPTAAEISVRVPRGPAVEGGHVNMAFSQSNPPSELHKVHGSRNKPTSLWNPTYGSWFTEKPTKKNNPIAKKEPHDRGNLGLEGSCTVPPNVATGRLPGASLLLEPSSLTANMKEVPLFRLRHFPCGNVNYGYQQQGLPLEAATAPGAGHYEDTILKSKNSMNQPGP
Chain of CSNK1G2 (P78368 whole entry): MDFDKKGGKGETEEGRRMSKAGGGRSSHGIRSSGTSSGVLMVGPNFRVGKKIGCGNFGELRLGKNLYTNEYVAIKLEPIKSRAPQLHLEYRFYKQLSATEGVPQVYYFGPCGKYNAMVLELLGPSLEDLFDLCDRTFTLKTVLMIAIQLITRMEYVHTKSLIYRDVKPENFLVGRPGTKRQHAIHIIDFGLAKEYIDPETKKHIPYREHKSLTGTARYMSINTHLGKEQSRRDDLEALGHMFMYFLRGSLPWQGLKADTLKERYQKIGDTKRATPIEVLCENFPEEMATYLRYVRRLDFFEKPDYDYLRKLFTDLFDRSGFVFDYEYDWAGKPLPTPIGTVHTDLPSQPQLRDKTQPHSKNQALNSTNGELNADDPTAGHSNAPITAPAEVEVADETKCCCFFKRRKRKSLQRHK

COc1cc2c(cn1)N(C)C(=O)[C@@H](NC(=O)c1nc3n(n1)[C@H](c1ccccc1)CC3)CC2 [GNE684, (S)-N-((S)-7-methoxy-1-methyl-2-oxo-2,3,4,5-tetrahydro-1H-pyrido[3,4-b]azepin-3-yl)-5-phenyl-6,7-dihydro-5H-pyrrolo[1,2-b][1,2,4]triazole-2-carboxamide]
remaining binding at 10 µM [1]: 98%
remaining binding at 10 µM [2]: 100%
remaining binding at 10 µM [3]: 28%
remaining binding at 10 µM [4]: 84%
remaining binding at 10 µM [5]: 90%
remaining binding at 10 µM [6]: 97%
remaining binding at 10 µM [7]: 100%
remaining binding at 10 µM [8]: 96%
remaining binding at 10 µM [9]: 91%
remaining binding at 10 µM [10]: 94%
remaining binding at 10 µM [11]: 81%
remaining binding at 10 µM [12]: 100%
remaining binding at 10 µM [13]: 98%
remaining binding at 10 µM [14]: 92%
remaining binding at 10 µM [15]: 93%
remaining binding at 10 µM [16]: 48%
remaining binding at 10 µM [17]: 96%
remaining binding at 10 µM [18]: 88%
remaining binding at 10 µM [19]: 100%
remaining binding at 10 µM [20]: 100%
remaining binding at 10 µM [21]: 93%
